{"source": "patent US11857566B2", "about": "“Sulfonated polystyrene derivative for use in the treatment and/or prophylaxis of cat flu” (UNIWERSYTET JAGIELLONSKI, priority 2018, dated 2024)", "origin": "cited, not measured here", "key": {"[1]": {"conditions": "in vivo"}}}
{"compound": "Nc1nc2c(ncn2CCC(CO)CO)c(=O)[nH]1", "note": "[PCV, penciclovir]", "values": [{"measurement": "concentration of PCV in cats", "setting": "after famciclovir", "value": "much lower than expected"}]}
{"compound": "CC(C)[C@H](N)C(=O)OCCOCn1cnc2c(=O)[nH]c(N)nc21", "note": "[VCV, Valaciclovir]", "values": [{"measurement": "symptoms of the disease in cats who took the drug", "setting": "FHV; in vivo", "value": "did not improve symptoms of the disease"}, {"measurement": "adverse effects in cats", "setting": "[1]", "value": "many adverse effects, such as bone marrow suppression or liver and kidney necrosis leading to animal death"}]}
{"compound": "Nc1nc2c(ncn2COCCO)c(=O)[nH]1", "note": "[acyclovir]", "values": [{"measurement": "activity in cats", "setting": "FHV; compared with HSV-1 in humans", "value": "did not show equally high activity"}, {"measurement": "bioavailability in cats", "setting": "in vivo", "value": "low"}]}
{"compound": "CC(=O)OCC(CCn1cnc2cnc(N)nc21)COC(C)=O", "note": "[famciclovir]", "values": [{"measurement": "safety in treatment and prophylaxis of FHV infection in cats", "setting": "[1]", "value": "has been shown to be safe"}]}
{"compound": "[Cl-].[Li+]", "note": "[lithium chloride]", "values": [{"measurement": "in vitro antiviral activity against FCV", "setting": "FCV", "value": "very high in vitro antiviral activity"}]}
{"compound": "OC(c1cc(C(F)(F)F)nc2c(C(F)(F)F)cccc12)C1CCCCN1", "note": "(stereo not drawn) [mefloquine]", "values": [{"measurement": "in vitro antiviral activity against FCV", "setting": "FCV", "value": "very high in vitro antiviral activity"}]}
{"compound": "NC(=O)c1ncn([C@@H]2O[C@H](CO)[C@@H](O)[C@H]2O)n1", "note": "[ribavirin]", "values": [{"measurement": "in vitro antiviral activity against FCV", "setting": "FCV", "value": "inhibits FCV infection in vitro"}]}
